Data as given in patent US8691811B2, “Quinazolinone linked pyrrolo[2,1-c][1,4]benzodiazepine hybrids as potential anticancer agents and process for the preparation thereof” (Council of Scientific & Industrial Research, priority 2008, dated 2014).

Legend:
NCI-H322M = test: NCI cytotoxicity (SRB, 48 h), NCI-H322M; format: cell-based, human; conditions: non-small cell lung
Description: (§1) The C8-linked quinazolinone-PBD hybrid (5d) has been tested against sixty human tumour cell lines derived from nine cancer types (leukemia, non-small cell lung cancer, colon cancer, CNS cancer, melanoma, ovarian cancer, renal cancer, prostate cancer and breast cancer) as per NCI protocol. For each compound, dose response curves for individual cell lines have been measured at a minimum of five concentrations at 10 fold dilutions. A protocol of 48 h continuous drug exposure has been used, and a sulforhodamine B (SRB) protein assay was used to estimate cell viability or growth. The concentration for 50% cell growth inhibition (GI50), total cell growth inhibition (TGI, 0% growth) and 50% cell death (LC50, […]) compared with the control has been calculated (Table-1). Compound 5d has been evaluated for their in vitro cytotoxicity in sixty cell lines from nine human cancer types of lung (Hop-62, NCI-H226, NCI-H522), leukemia (K-562, SR), colon (HCT-116, HCT-15, HCC-2998), CNS(SF-539), melanoma (SK-MEL-5, UACC-62, M14), ovarian (IGROV1), renal (A498), prostate (PC3) breast (BT-549, MDA-MB-435, HS578T) origin. The results are expressed as percent of cell growth determined relative to that of untreated control cells (Table 2). The representative compound 5d has shown significant cytotoxicity against some cancer cell lines.

[1] = test system: sixty human tumour cell lines; test: NCI in vitro cytotoxicity screen (SRB, 48 h), all cell lines; format: cell-based; conditions: 48 h exposure
Description: as §1

[2] = test system: Ovarian cancer cell lines; test: NCI cytotoxicity (SRB, 48 h), ovarian panel; format: cell-based, human; conditions: Ovarian panel average
Description: as §1

HCC-2998 = test: NCI cytotoxicity (SRB, 48 h), HCC-2998; format: cell-based, human; conditions: HCC-2998, colon
Description: as §1

Renal cancer cell lines = test: NCI cytotoxicity (SRB, 48 h), renal panel; format: cell-based, human; conditions: Renal panel average
Description: as §1

EKVX = test: NCI cytotoxicity (SRB, 48 h), EKVX; format: cell-based, human; conditions: non-small cell lung
Description: as §1

UACC-257 = test: NCI cytotoxicity (SRB, 48 h), UACC-257; format: cell-based, human; conditions: UACC-257, melanoma
Description: as §1

MALME-3M = test: NCI cytotoxicity (SRB, 48 h), MALME-3M; format: cell-based, human; conditions: melanoma
Description: as §1

SK-OV-3 = test: NCI cytotoxicity (SRB, 48 h), SK-OV-3; format: cell-based, human; conditions: SK-OV-3, ovarian
Description: as §1

CCRF-CEM = test: NCI cytotoxicity (SRB, 48 h), CCRF-CEM; format: cell-based, human; conditions: leukemia
Description: as §1

SN12C = test: NCI cytotoxicity (SRB, 48 h), SN12C; format: cell-based, human; conditions: renal
Description: as §1

SNB-75 = test: NCI cytotoxicity (SRB, 48 h), SNB-75; format: cell-based, human; conditions: SNB-75, CNS
Description: as §1

HL-60(TB) = test: NCI cytotoxicity (SRB, 48 h), HL-60(TB); format: cell-based, human; conditions: leukemia
Description: as §1

[3] = test system: Non-small cell lung cancer cell lines; test: NCI cytotoxicity (SRB, 48 h), non-small cell lung panel; format: cell-based, human; conditions: Non-small-cell lung panel average
Description: as §1

Melanoma cell lines = test: NCI cytotoxicity (SRB, 48 h), melanoma panel; format: cell-based, human; conditions: Melanoma panel average
Description: as §1

SK-MEL-2 = test: NCI cytotoxicity (SRB, 48 h), SK-MEL-2; format: cell-based, human; conditions: SK-MEL-2, melanoma
Description: as §1

NCI-H522 = test: NCI cytotoxicity (SRB, 48 h), NCI-H522; format: cell-based, human; conditions: NCI-H522, non-small cell lung
Description: as §1

OVCAR-5 = test: NCI cytotoxicity (SRB, 48 h), OVCAR-5; format: cell-based, human; conditions: OVCAR-5, ovarian
Description: as §1

Colon cancer cell lines = test: NCI cytotoxicity (SRB, 48 h), colon panel; format: cell-based, human; conditions: Colon panel average
Description: as §1

786-0 = test: NCI cytotoxicity (SRB, 48 h), 786-0; format: cell-based, human; conditions: 786-0, renal
Description: as §1

HT29 = test: NCI cytotoxicity (SRB, 48 h), HT29; format: cell-based, human; conditions: HT29, colon
Description: as §1

ACHN = test: NCI cytotoxicity (SRB, 48 h), ACHN; format: cell-based, human; conditions: renal
Description: as §1

COc1cc2c(cc1OCCCCCOc1ccc(-n3c(C)nc4ccccc4c3=O)cc1)N=C[C@@H]1CCCN1C2=O [5d, 7-methoxy-8-{5-[4-(2-methyl-4-oxo-3,4-dihydro-3-quinazolinyl)phenoxy]pentyloxy-}-(11aS)-1,2,3,11a-tetrahydro-5H-pyrrolo[2,1-c][1,4]benzodiazepine-5-one]
GI50 (NCI-H322M): 260 nM | GI50 ([1]; bound over all sixty cell lines, read-out: GI50 value against sixty cell lines in nine cell panels): < 1730 nM | Log10 GI50 mean graph midpoint (MG_MID) ([1]; human tumour cell lines): −6.63 | Log10 LC50 mean graph midpoint (MG_MID) ([1]; human tumour cell lines): −5.21 | Log10 TGI mean graph midpoint (MG_MID) ([1]; human tumour cell lines): −6.15 | Log10 GI50 [2]: −6.52 mol/L | Log10 LC50 [2]: −4.79 | GI50 (HCC-2998): 260 nM | Log10 GI50 (Renal cancer cell lines): −6.62 mol/L | Log10 LC50 (Renal cancer cell lines): −5.09 | GI50 (EKVX): 870 nM | GI50 (UACC-257): 390 nM | GI50 (MALME-3M): 230 nM | GI50 (SK-OV-3): 430 nM | GI50 (CCRF-CEM): 160 nM | GI50 (SN12C): 240 nM | GI50 (SNB-75): 380 nM | GI50 (HL-60(TB)): 180 nM | Log10 GI50 [3]: −6.59 mol/L | Log10 LC50 [3]: −5.02 | Log10 GI50 (Melanoma cell lines): −6.65 mol/L | Log10 LC50 (Melanoma cell lines): −5.90 | GI50 (SK-MEL-2): 420 nM | GI50 (NCI-H522): 120 nM | GI50 (OVCAR-5): 330 nM | Log10 GI50 (Colon cancer cell lines): −6.59 mol/L | Log10 LC50 (Colon cancer cell lines): −5.49 | GI50 (786-0): 170 nM | GI50 (HT29): 260 nM | GI50 (ACHN): 290 nM
